Assay results taken from PMC5734728, “The JAK2/STAT3 inhibitor pacritinib effectively inhibits patient-derived GBM brain tumor initiating cells in vitro and when used in combination with temozolomide increases survival in an orthotopic xenograft model” (PLoS ONE, 2017).

Assays:
in vitro = in vitro ADME, mouse; settings: mouse liver microsomes, 30-minute incubation; for % Remaining: 1 μM
Description: (§1) Working stocks were initially diluted to a concentration of 40 μM in 0.1 M potassium phosphate buffer before addition to the reaction vials. Pooled mouse (CD-1, male) or human (50 donors) liver microsomes were utilized at a final concentration of 0.5 mg/mL. Duplicate wells were used for each time point (0 and 30 minutes). Reactions were carried out at 37°C in a shaker, and the final concentration of DMSO was kept constant at 0.01%. The final volume for each reaction was 100 μL, which included the addition of an NADPH-Regeneration solution (NRS) mix. The NRS mix was comprised of glucose 6-phosphate dehydrogenase (0.4 U/mL), NADP+ (1.3 mM), MgCl2 (3.3 mM), and glucose 6-phosphate (3.3 mM) in assay mixtures. Upon completion of the 30-minute time point, reactions were terminated by the addition of 1.5-volumes (150 μL) of ice-cold acetonitrile with 0.5% formic acid and internal standard. Samples were then centrifuged at 4,000 rpm for 10 minutes to remove debris and precipitated protein. Approximately 150 μL of supernatant was subsequently transferred to a new 96-well microplate for LC-MS analysis. Narrow-window mass extraction LC-MS analysis was performed for all samples using a Waters Xevo quadrupole time-of-flight (QToF) mass spectrometer and an ACQUITY UPLC system, to determine relative peak areas of parent compound.

p-Akt S473 = assay: western blotting of p-Akt in BTICs; type: cell-based, human
Description: (§2) BTIC spheres were enzymatically dissociated as described above and plated at 10^6 cells/2 mL of media. Cells were treated with vehicle (DMSO), pacritinib, TMZ, or a combination of pacritinib and TMZ and pelleted at select time points (3, 24, and 48 hours). For protein extraction, BTICs were lysed in modified radio-immunoprecipitation assay buffer supplemented with Complete Mini protease (Roche) and Halt phosphatase (Thermo Scientific) inhibitor cocktails. […] Blots were stained with primary antibodies followed by horseradish peroxidase-conjugated secondary antibodies. […] Cell Signaling Technology), STAT3 (1:1000; Cell Signaling Technology), p-Akt S473 (1:1000; Cell Signaling Technology), Akt (1:1000; Cell Signaling Technology), p-p44/42 MAPK (T202/Y204) (1:1000; Cell Signaling Technology), p44/42 MAPK (1:4000; Cell Signaling Technology), poly (ADP-ribose) polymerase (1:1000; Cell Signaling Technology), β-tubulin (1:1000; Cell Signaling Technology), and Actin (1:1000; Santa Cruz Biotechnology). Secondary antibodies included donkey anti-mouse (1:5000; Cell Signaling Technology), donkey anti-goat (1:5000; Millipore), and goat anti-rabbit (1:5000; Cell Signaling Technology). […] Bands were visualized with the SuperSignal West Pico chemiluminescent solution (Thermo Scientific) and an Amersham™ Imager 600 (General Electric).

BT69 [1] = assay: alamarBlue BTIC viability assay, BT69; type: cell-based; settings: Homo sapiens; BTIC line BT69, alamarBlue
BT69 [2] = assay: neurosphere assay, BT69; type: cell-based, human; settings: 3 μM
[3] = system: BT206 orthotopic xenograft; assay: Kaplan-Meier survival, orthotopic BT206 xenograft; type: in vivo; settings: BT206 xenografted mice; p < 0.0968 log-rank
[4] = system: BT143 orthotopic xenograft; assay: Kaplan-Meier survival, orthotopic BT143 xenograft; type: in vivo; settings: BT143 xenografted mice; p < 0.4622 log-rank
BT12 = assay: alamarBlue BTIC viability assay, BT12; settings: Homo sapiens, BT-12, read-out: IC50 (viability)
Description: (§3) Accumax (eBioscience) was used to enzymatically dissociate BTIC spheres to single cells. Cells were seeded at 1000 cells per well in 96-well plates and treated with vehicle (DMSO) or drug, 24 hours after plating. BTIC viability was assessed after 7–14 days, once spheres were formed in control wells, by performing the alamarBlue™ (Invitrogen) assay per the manufacturer’s instructions. In brief, the alamar dye was added to each well and plates were read 6 hours later. Fluorescence intensity (excitation 540 nm; emission 590 nm) was measured on a SpectraMax M Series Multi-Mode Microplate reader. […] All experiments were performed in triplicate with a minimum of 3 wells per condition.
(§4) BTICs were treated with suboptimal doses of 1 μM pacritinib (CTI Biopharma), 10 μg/mL TMZ (Sigma), or a combination of pacritinib and TMZ. […] Percent inhibition was determined by normalizing each well to the control well (0.1% DMSO).

BT48 = assay: alamarBlue BTIC viability assay, BT48; type: cell-based; settings: Homo sapiens; BTIC line BT48, alamarBlue
[5] = system: patient-derived GBM BTIC cultures; assay: neurosphere assay, all BTIC cultures tested; type: cell-based, human; settings: 5 μM
BT67 = assay: alamarBlue BTIC viability assay, BT67; type: cell-based; settings: Homo sapiens; BTIC line BT67, alamarBlue
BT50 = assay: alamarBlue BTIC viability assay, BT50; type: cell-based; settings: Homo sapiens; BTIC line BT50, alamarBlue
[6] = system: p-p44/42 MAPK (T202/Y204); assay: western blotting of p-p44/42 MAPK in BTICs; type: cell-based, human
Description: as §2

BT68 = assay: alamarBlue BTIC viability assay, BT68; type: cell-based; settings: Homo sapiens; BTIC line BT68, alamarBlue
[7] = system: patient-derived GBM BTIC cultures; assay: alamarBlue viability assay, panel of BTIC cultures
Description: as §3, §4

[8] = human, in vivo, cited from earlier work
BT143 = assay: alamarBlue BTIC viability assay, BT143; type: cell-based; settings: Homo sapiens; BTIC line BT143, alamarBlue
BT147 = assay: alamarBlue BTIC viability assay, BT147; type: cell-based; settings: Homo sapiens; BTIC line BT147, alamarBlue
[9] = human liver microsomal stability assay; type: in vitro ADME; settings: human liver microsomes, 30-minute incubation
Description: as §1

[10] = BT147 and BT53, low micromolar concentrations, 3 hours

## C1=C/COCc2cc(ccc2OCCN2CCCC2)Nc2nccc(n2)-c2cccc(c2)COC/1 [pacritinib]
In vitro
  stability rating: Unstable
  % Remaining: < 1%
In vitro; listed as Pacritinib (run 1)
  % Remaining: 0.3%
In vitro; listed as Pacritinib (run 2)
  % Remaining: 0.6%
p-Akt S473; BT147 and BT53, 5 and 10 μM
  p-Akt S473: decreased
p-Akt S473; [10]
  phosphorylation of AKT S473: unchanged levels of phosphorylation
BT69 [1]
  IC50: 1.26 µM
BT69 [2]
  sphere formation: completely abolished sphere formation
[3]
  efficacy of treatment alone (Kaplan-Meier survival): no efficacy
[4]
  efficacy of treatment alone (Kaplan-Meier survival): no efficacy
BT12
  IC50: 1.66 µM
BT48
  IC50: 1.03 µM
[5]
  sphere formation: completely inhibit sphere formation
BT67
  IC50: 1.08 µM
BT50
  IC50: 0.62 µM
[6]; BT53, 5 and 10 μM
  p-p44/42 MAPK: decreased p-p44/42 MAPK
[6]; [10]
  phosphorylation of p44/42 MAPK (T202/Y204): unchanged levels of phosphorylation
BT68
  IC50: 1.22 µM
[7]; Homo sapiens, read-out: IC50 values for the eleven BTIC cultures tested
  IC50: 0.62 to 1.66 µM
[7]; at 1.5 μM, in 10/11 BTIC cultures tested
  viability reduced: 50%
[8]; 100 mg
  Cmax: 7.8 µM
  mean maximum concentration (Cmax): 3699 ng/mL
[8]
  median time to maximum concentration (Tmax): 5 h
BT143
  IC50: 1.36 µM
BT147
  IC50: 0.99 µM
[9]
  stability rating: Stable
[9]; 1 μM
  remaining at 0.5 h, 1 μM: 76.2 ± 7.9%
